Measurements published in EPA's ToxRefDB 2.

Experiments:
rat [1] = details: Multigenerational reproductive toxicity study, other, Oral, Gavage/Intubation, dose end: 2 generation
mouse = details: Combined chronic toxicity/carcinogenicity, cd1, Oral, Gavage/Intubation, dose end: 24 month, group: systemic
rat [2] = details: Combined chronic toxicity/carcinogenicity; Oral; Gavage/Intubation; dose end: 104 week; group: systemic; systemic / in life observation / body weight / body weight gain + systemic / in life observation / water consumption / water consumption + …
rat [3] = details: Subchronic oral toxicity in rodents, sprague dawley, Gavage/Intubation, dose end: 13 week, group: systemic
rat [4] = details: Prenatal developmental toxicity study, Charles River COBS CD rats, Oral, Gavage/Intubation, dose end: 20 GD
dog [5] = details: Chronic toxicity; beagle; Oral; Capsule; dose end: 52 week; group: systemic; systemic / in life observation / body weight / body weight gain + systemic / in life observation / clinical signs / salivation + systemic / …
dog [6] = details: Subchronic oral toxicity in nonrodent, beagle, Capsule, dose end: 13 week, group: systemic
[7] = group: offspring, systemic / in life observation / clinical signs / reduced body size
[8] = group: parental, systemic / in life observation / body weight / body weight gain
[9] = systemic / organ weight / ovary / absolute + systemic / organ weight / ovary / relative to body weight + systemic / organ weight / adrenal …
[10] = systemic / organ weight / liver / absolute + systemic / in life observation / body weight / body weight gain + systemic / in life …
[11] = group: developmental, systemic / in life observation / body weight / offspring (pup) weight
[12] = group: maternal, systemic / in life observation / body weight / body weight gain + systemic / in life observation / clinical signs / salivation
[13] = systemic / in life observation / clinical signs / watery stools

**Q.** Which LEL (rat [1]; [7]) does the source give for `CC1(C)[C@H](C(=O)O[C@H](C#N)c2cccc(Oc3ccccc3)c2)[C@@H]1C(Br)C(Br)(Br)Br` (stereo partly specified) [Tralomethrin] here?
**A.** 0.75 mg/kg/day

**Q.** What about the LOAEL (rat [1]; [7]) of the same molecule?
**A.** 0.75 mg/kg/day

**Q.** And the NEL (rat [1]; [7])?
**A.** < 0.75 mg/kg/day

**Q.** And the NOAEL (rat [1]; [7])?
**A.** < 0.75 mg/kg/day

**Q.** And the LEL (rat [1]; [8])?
**A.** 3 mg/kg/day

**Q.** And the LOAEL (rat [1]; [8])?
**A.** 3 mg/kg/day

**Q.** What about the NEL (rat [1]; [8]) of the same molecule?
**A.** 0.75 mg/kg/day

**Q.** What about the NOAEL (rat [1]; [8]) of the same molecule?
**A.** 0.75 mg/kg/day

**Q.** And the LEL (mouse; [9])?
**A.** 0.75 mg/kg/day

**Q.** What about the NEL (mouse; [9]) of the same molecule?
**A.** < 0.75 mg/kg/day

**Q.** And the LOAEL (mouse; systemic / pathology gross / skin / lesion(s) (nos))?
**A.** 3 mg/kg/day

**Q.** And the NOAEL (mouse; systemic / pathology gross / skin / lesion(s) (nos) + systemic / in life observation / clinical signs / abnormal motor movement + systemic…)?
**A.** 0.75 mg/kg/day

**Q.** What about the LEL (rat [2]) of the same molecule?
**A.** 3 mg/kg/day

**Q.** What about the LOAEL (rat [2]) of the same molecule?
**A.** 3 mg/kg/day

**Q.** And the NEL (rat [2])?
**A.** 0.75 mg/kg/day

**Q.** And the NOAEL (rat [2])?
**A.** 0.75 mg/kg/day

**Q.** What about the LOAEL (rat [3]; systemic / organ weight / liver / absolute) of the same molecule?
**A.** 6 mg/kg/day

**Q.** And the LEL (rat [3]; systemic / organ weight / liver / absolute + systemic / in life observation / body weight / body weight gain)?
**A.** 6 mg/kg/day

**Q.** And the NEL (rat [3]; [10])?
**A.** 1 mg/kg/day

**Q.** What about the NOAEL (rat [3]; [10]) of the same molecule?
**A.** 1 mg/kg/day

**Q.** What about the LEL (rat [4]; [11]) of the same molecule?
**A.** 12 mg/kg/day

**Q.** And the LOAEL (rat [4]; [11])?
**A.** > 12 mg/kg/day

**Q.** What about the NEL (rat [4]; [11]) of the same molecule?
**A.** 3 mg/kg/day

**Q.** What about the NOAEL (rat [4]; [11]) of the same molecule?
**A.** ≥ 12 mg/kg/day

**Q.** What about the LOAEL (rat [4]; group: maternal, systemic / in life observation / body weight / body weight gain + reproductive / offspring survival early / birth index / live birth index) of the same molecule?
**A.** 12 mg/kg/day

**Q.** And the LEL (rat [4]; group: maternal, systemic / in life observation / body weight / body weight gain + reproductive / offspring survival early / birth index / live birth index…)?
**A.** 12 mg/kg/day

**Q.** And the NEL (rat [4]; [12])?
**A.** 3 mg/kg/day

**Q.** And the NOAEL (rat [4]; [12])?
**A.** 3 mg/kg/day

**Q.** What about the LEL (dog [5]) of the same molecule?
**A.** 3 mg/kg/day

**Q.** What about the LOAEL (dog [5]) of the same molecule?
**A.** 3 mg/kg/day

**Q.** And the NEL (dog [5])?
**A.** 1 mg/kg/day

**Q.** What about the NOAEL (dog [5]) of the same molecule?
**A.** 1 mg/kg/day

**Q.** And the LOAEL (dog [6]; systemic / hematology / erythrocyte (rbc) count differential / erythrocyte (rbc) + systemic / hematology / hemoglobin (hgb) / hemoglobin (…)?
**A.** 10 mg/kg/day

**Q.** And the LEL (dog [6]; [13])?
**A.** 0.1 mg/kg/day

**Q.** And the NEL (dog [6]; [13])?
**A.** < 0.1 mg/kg/day

**Q.** And the NOAEL (dog [6]; systemic / in life observation / clinical signs / watery stools + systemic / hematology / erythrocyte (rbc) count differential / erythrocyte…)?
**A.** 1 mg/kg/day
